Holding throughout (assay): biochemical
Design in all cases: DiscoverX KinomeScan competition binding assay across human kinases; per cent of control at 10 and 100 uM

One assay addresses PIK3CA(E545A) (Homo sapiens, UniProt P42336, E545A). The note with it: competition binding, % of control; read-out: Percent Control (100 uM Levosimendan). In outline:
(§1)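 Binding is expressed as %control, normalised between positive and negative control signals. The compound (levosimendan) was tested at 10 μM and 100 μM in the DiscoverX KinomeScan competition binding format against human kinases.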

The target in a further assay is SGK3 (Homo sapiens, UniProt Q96BR1). Particulars: competition binding, % of control; read-out: Percent Control (100 uM Levosimendan). In outline: as §1
Another assay has as its target LATS2 (Homo sapiens, UniProt Q9NRM7). Particulars: competition binding, % of control; read-out: Percent Control (100 uM Levosimendan). In outline: as §1
Another assay deals with EPHA1 (Homo sapiens, UniProt P21709). Particulars: competition binding, % of control; read-out: Percent Control (100 uM Levosimendan). In outline: as §1
For a further assay, the target named is CSNK1A1L (Homo sapiens, UniProt Q8N752). The note with it: competition binding, % of control; read-out: Percent Control (100 uM Levosimendan). In outline:
as §1

For the next assay, the target named is T1, MEK4 (Homo sapiens, UniProt P45985).
T1 construct: gene MAP2K4
The note with it: competition binding, % of control; read-out: Percent Control (100 uM Levosimendan). In outline: as §1

In a further assay the target is TNK2 (Homo sapiens, UniProt Q07912). The note with it: competition binding, % of control; read-out: Percent Control (100 uM Levosimendan). In outline:
as §1

Another assay concerns the target EPHA8 (Homo sapiens, UniProt P29322). Particulars: competition binding, % of control; read-out: Percent Control (100 uM Levosimendan). In outline: as §1
Assay [1] addresses T2, JAK2(JH1domain-catalytic) (Homo sapiens, UniProt O60674).
T2 construct: JH1domain-catalytic
Particulars: competition binding, % of control. In outline: as §1

A further assay concerns the target FES (Homo sapiens, UniProt P07332). The note with it: competition binding, % of control; read-out: Percent Control (100 uM Levosimendan). In outline:
as §1

The target in the next assay is CSNK1G2 (Homo sapiens, UniProt P78368). Particulars: competition binding, % of control. In outline: as §1
Another assay addresses T3, IKK-alpha (Homo sapiens, UniProt O15111).
T3 construct: gene CHUK
Particulars: competition binding, % of control; read-out: Percent Control (100 uM Levosimendan). In outline:
as §1

The next assay deals with MET(M1250T) (Homo sapiens, UniProt P08581, M1250T). Particulars: competition binding, % of control; read-out: Percent Control (100 uM Levosimendan). In outline: as §1
The target of assay [2] is T4, ABL1(H396P)-phosphorylated (Homo sapiens, UniProt P00519, H396P).
T4 construct: phosphorylated
Particulars: competition binding, % of control; read-out: Percent Control (100 uM Levosimendan). In outline: as §1

The next assay addresses MAP3K4 (Homo sapiens, UniProt Q9Y6R4). The note with it: competition binding, % of control; read-out: Percent Control (100 uM Levosimendan). In outline: as §1
Another assay addresses TBK1 (Homo sapiens, UniProt Q9UHD2). Particulars: competition binding, % of control. In outline: as §1
The target of a further assay is T5, YSK1 (Homo sapiens, UniProt O00506).
T5 construct: gene STK25
Particulars: competition binding, % of control; read-out: Percent Control (100 uM Levosimendan). In outline: as §1

A further assay concerns the target SLK (Homo sapiens, UniProt Q9H2G2). Particulars: competition binding, % of control; read-out: Percent Control (100 uM Levosimendan). In outline: as §1
In the next assay the target is EGFR(G719S) (Homo sapiens, UniProt P00533, G719S). Particulars: competition binding, % of control. In outline:
as §1

[3] abbreviates: read-out: Percent Control (10 uM Levosimendan).
The mark [4] stands for this setting: read-out: Percent Control (100 uM Levosimendan).

These results are taken from article PMC6576746, “Rational discovery of dual-indication multi-target PDE/Kinase inhibitor for precision anti-cancer therapy using structural systems pharmacology” (PLoS Computational Biology, 2019).

Chain of CSNK1G2 (P78368 whole entry): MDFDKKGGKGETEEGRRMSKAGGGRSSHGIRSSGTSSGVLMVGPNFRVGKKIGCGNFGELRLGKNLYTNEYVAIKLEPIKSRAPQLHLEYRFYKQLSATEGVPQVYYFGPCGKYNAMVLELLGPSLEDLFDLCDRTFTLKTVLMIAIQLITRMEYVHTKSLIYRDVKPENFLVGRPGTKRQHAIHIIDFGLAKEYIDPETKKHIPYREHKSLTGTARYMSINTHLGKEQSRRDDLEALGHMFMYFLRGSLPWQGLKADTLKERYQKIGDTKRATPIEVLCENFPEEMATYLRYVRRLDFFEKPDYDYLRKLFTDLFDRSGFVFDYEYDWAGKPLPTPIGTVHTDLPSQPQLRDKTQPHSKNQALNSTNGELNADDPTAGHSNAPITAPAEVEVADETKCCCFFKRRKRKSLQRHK
T2 sequence (O60674 whole entry): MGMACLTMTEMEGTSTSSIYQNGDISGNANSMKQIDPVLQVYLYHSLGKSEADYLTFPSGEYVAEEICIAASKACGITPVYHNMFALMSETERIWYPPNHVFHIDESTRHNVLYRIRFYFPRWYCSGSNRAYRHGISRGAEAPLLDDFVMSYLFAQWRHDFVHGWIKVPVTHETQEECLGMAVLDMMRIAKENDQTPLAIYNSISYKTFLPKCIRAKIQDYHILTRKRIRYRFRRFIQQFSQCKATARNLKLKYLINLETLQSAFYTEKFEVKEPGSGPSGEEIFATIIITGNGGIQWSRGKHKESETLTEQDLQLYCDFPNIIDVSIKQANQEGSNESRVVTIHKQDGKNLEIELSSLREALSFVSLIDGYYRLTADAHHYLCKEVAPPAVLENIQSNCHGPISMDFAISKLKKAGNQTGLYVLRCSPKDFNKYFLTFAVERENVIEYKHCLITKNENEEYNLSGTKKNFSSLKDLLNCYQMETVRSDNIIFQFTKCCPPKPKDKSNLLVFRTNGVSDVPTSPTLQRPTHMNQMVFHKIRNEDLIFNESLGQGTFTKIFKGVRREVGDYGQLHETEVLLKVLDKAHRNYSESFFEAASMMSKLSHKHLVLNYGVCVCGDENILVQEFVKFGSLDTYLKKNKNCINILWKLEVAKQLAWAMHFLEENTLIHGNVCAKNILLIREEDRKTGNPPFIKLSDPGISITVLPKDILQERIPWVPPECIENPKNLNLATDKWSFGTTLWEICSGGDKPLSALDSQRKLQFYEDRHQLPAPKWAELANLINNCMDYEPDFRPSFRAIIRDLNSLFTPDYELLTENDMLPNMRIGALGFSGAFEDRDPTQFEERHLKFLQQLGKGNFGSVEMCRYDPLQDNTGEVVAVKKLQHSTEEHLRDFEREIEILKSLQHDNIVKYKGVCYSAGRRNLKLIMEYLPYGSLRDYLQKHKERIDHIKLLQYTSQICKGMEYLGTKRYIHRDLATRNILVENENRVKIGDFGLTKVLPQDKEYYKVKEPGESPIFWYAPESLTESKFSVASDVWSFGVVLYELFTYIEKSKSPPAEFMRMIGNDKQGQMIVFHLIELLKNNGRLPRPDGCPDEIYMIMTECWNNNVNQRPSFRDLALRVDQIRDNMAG
Chain of EGFR(G719S) (P00533 whole entry G719S): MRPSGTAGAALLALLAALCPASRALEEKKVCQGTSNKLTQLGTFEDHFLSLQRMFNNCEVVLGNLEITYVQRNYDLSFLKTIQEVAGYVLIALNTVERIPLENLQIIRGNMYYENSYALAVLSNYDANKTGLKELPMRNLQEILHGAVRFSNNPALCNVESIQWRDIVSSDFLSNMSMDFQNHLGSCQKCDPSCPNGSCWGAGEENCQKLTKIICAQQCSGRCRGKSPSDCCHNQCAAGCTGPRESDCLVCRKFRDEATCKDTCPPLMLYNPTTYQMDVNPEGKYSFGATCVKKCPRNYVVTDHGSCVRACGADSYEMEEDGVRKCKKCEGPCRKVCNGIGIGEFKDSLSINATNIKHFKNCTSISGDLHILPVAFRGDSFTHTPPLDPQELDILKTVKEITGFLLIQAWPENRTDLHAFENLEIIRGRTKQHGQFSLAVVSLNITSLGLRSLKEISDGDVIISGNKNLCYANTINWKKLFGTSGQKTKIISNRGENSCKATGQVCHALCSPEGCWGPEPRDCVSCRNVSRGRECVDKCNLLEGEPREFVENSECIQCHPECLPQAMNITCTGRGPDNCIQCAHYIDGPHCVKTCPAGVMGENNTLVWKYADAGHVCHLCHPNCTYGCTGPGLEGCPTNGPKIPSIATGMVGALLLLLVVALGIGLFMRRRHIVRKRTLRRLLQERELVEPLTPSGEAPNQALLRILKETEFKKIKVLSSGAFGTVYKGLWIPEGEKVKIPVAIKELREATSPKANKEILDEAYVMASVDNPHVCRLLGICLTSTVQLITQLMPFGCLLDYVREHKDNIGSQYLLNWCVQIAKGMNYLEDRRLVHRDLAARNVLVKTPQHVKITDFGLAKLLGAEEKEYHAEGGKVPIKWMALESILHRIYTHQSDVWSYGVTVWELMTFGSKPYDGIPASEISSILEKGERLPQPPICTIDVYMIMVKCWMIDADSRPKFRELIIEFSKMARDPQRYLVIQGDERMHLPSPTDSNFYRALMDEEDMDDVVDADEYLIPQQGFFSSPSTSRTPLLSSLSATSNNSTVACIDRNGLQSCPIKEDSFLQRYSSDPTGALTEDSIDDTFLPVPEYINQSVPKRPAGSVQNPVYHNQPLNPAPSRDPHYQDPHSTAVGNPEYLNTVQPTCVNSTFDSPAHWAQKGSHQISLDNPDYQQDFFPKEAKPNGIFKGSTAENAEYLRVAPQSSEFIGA
Chain of TBK1 (Q9UHD2 whole entry): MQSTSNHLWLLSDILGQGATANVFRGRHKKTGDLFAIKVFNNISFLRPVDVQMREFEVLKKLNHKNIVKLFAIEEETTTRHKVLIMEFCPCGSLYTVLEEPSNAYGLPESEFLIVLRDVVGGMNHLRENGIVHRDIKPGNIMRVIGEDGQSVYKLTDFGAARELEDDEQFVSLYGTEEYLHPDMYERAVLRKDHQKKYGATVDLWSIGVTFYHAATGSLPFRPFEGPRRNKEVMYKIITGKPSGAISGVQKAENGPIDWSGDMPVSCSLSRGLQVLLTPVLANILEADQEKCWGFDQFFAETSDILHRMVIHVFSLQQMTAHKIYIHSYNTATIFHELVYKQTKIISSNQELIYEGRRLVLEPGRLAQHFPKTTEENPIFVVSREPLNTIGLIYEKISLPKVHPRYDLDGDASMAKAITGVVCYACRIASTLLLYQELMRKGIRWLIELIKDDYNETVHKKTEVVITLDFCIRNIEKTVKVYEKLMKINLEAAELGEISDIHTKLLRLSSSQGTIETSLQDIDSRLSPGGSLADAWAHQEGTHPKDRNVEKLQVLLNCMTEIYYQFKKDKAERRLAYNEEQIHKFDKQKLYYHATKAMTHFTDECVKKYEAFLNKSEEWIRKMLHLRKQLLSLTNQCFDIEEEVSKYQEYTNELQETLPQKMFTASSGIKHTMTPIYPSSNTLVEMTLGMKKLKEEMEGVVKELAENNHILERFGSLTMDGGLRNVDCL
Chain of SLK (Q9H2G2 whole entry): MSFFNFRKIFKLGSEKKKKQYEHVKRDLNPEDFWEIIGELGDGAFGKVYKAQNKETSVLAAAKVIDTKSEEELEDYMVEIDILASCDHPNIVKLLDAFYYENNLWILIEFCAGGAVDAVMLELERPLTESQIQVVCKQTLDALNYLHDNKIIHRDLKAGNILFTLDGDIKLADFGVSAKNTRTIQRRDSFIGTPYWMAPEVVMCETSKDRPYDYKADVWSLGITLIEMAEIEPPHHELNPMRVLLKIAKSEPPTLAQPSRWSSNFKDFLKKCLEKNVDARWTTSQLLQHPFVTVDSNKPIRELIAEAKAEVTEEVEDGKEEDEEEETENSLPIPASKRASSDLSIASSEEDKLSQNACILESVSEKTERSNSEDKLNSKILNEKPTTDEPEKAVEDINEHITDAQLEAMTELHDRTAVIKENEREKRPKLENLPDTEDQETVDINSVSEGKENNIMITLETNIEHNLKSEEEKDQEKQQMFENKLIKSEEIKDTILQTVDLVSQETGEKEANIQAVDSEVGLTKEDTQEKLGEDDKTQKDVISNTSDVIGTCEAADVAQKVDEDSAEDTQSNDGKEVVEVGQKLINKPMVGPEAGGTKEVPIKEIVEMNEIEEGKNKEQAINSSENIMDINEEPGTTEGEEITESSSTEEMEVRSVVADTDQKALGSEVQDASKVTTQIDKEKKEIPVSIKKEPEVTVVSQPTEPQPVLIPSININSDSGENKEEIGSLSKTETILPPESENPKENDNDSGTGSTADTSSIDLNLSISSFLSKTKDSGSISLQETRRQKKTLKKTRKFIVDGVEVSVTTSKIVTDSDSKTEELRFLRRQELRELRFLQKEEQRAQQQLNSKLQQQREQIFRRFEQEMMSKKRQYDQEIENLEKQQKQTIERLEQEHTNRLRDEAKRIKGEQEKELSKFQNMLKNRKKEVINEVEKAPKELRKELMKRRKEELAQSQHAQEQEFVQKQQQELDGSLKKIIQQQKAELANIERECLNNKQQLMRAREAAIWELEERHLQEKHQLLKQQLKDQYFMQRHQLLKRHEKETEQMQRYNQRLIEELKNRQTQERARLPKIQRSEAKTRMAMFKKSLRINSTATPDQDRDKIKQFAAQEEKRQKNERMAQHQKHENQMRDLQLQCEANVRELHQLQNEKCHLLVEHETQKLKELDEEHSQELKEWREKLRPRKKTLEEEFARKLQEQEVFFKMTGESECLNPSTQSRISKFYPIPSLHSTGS
Chain of CSNK1A1L (Q8N752 whole entry): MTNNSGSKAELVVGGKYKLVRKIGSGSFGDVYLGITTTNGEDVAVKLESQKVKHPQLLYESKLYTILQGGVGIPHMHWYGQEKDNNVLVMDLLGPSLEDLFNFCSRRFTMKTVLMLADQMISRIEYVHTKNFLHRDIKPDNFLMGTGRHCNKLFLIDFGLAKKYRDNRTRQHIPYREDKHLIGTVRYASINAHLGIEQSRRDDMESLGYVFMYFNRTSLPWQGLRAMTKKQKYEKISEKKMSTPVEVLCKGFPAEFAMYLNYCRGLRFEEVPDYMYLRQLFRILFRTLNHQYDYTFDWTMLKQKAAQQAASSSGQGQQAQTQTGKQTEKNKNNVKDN

For `C[C@@H]1CC(=O)NN=C1c1ccc(NN=C(C#N)C#N)cc1` [levosimendan], the remaining binding at 100 µM at PIK3CA(E545A) came to 68%; at SGK3 it was 92%; on LATS2 it was 100%; on EPHA1 it was 98%; on CSNK1A1L it was 55%; on MEK4, 92%. Moreover, the remaining binding at 100 µM at TNK2 was found to be 86%; on EPHA8 it was 91%; in assay [1] (setting [4]), 49%; on FES, 76%; on CSNK1G2 (setting [4]), 4.8%; on IKK-alpha it was 59%. The remaining binding at 100 µM amounted to 91% at MET(M1250T); 68% in assay [2]; 58% at MAP3K4; 38% on TBK1 (setting [4]); 100% at YSK1; 85% on SLK. At EGFR(G719S) (setting [4]), the remaining binding at 100 µM amounted to 41%. Besides, the remaining binding at 10 µM in assay [1] (setting [3]) worked out at 88%; on CSNK1G2 (setting [3]), 62%; on TBK1 (setting [3]), 94%; on EGFR(G719S) (setting [3]), 79%.
